Experimental data published in ChEMBL document CHEMBL4387741, “Optimization of novel reversible Bruton's tyrosine kinase inhibitors identified using Tethering-fragment-based screens” (Bioorg Med Chem, 2019).

What follows are compounds tested against Tyrosine-protein kinase BTK (Homo sapiens, UniProt Q06187) (assay: biochemical).
Tyrosine-protein kinase BTK, sequence (Q06187 whole entry): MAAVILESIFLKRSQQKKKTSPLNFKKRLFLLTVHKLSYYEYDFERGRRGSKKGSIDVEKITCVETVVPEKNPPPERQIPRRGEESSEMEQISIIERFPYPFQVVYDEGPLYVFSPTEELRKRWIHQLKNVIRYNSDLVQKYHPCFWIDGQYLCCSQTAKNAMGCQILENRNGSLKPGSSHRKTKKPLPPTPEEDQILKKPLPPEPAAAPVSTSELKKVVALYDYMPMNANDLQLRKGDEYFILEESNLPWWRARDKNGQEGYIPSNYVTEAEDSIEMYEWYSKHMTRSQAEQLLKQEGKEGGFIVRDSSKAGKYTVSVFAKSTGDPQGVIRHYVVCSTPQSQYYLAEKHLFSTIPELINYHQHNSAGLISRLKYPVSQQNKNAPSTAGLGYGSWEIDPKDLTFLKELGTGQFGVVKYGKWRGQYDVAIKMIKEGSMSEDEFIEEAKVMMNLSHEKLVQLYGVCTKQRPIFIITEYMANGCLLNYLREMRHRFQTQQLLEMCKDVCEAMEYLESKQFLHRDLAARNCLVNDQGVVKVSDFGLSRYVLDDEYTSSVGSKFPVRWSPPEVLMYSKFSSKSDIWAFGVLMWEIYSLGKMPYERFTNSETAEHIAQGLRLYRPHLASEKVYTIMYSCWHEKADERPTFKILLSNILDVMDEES
Description: Reversible inhibition of recombinant full-length N-terminal 6-His-tagged human BTK expressed in baculovirus infected Sf21 insect cells using fluorescent-labeled polyGAT peptide as substrate incubated for 30 mins by TR-FRET assay
`O=C(Nc1cccc(C2CCCN(c3ncnc4[nH]ccc34)C2)c1)Nc1ccccc1F` (stereo unspecified) was tested, and the IC50 was 0.5 µM.
`O=C(NCCc1cccc(Nc2ncnc3[nH]ccc23)c1)Nc1ccccc1` showed an IC50 of 12 µM.
Compound `O=C(Cc1ccccc1)Nc1cccc(C2CCCN(c3ncnc4[nH]ccc34)C2)c1` (stereo unspecified) has an IC50 of 45 µM.
`O=C(Nc1ccccc1)Nc1cccc(CCNc2ncnc3[nH]ccc23)c1` was tested, and the IC50 was 8.3 µM.
With `O=C(Nc1cccc(C2CCCN(c3ncnc4[nH]ccc34)C2)c1)Nc1ccccn1` (stereo unspecified) the IC50 was 2.7 µM.
`O=C(Nc1cccc(C2CCCN(c3ncnc4[nH]ccc34)C2)c1)Nc1ccccc1N1CCCCC1` (racemic) gave an IC50 of 0.55 µM.
`O=C(Nc1cccc(C2CCCN(c3ncnc4[nH]ccc34)C2)c1)Nc1ccccc1C1CC1` (racemic) was tested, and the IC50 was 0.2 µM.
With `O=C(Nc1ccncc1)Nc1cccc(C2CCCN(c3ncnc4[nH]ccc34)C2)c1` (stereo unspecified) the IC50 was > 10 µM.
`O=S(=O)(Nc1cccc(C2CCCN(c3ncnc4[nH]ccc34)C2)c1)c1ccccc1` (stereo unspecified) showed an IC50 of 19 µM.
Compound `O=C(Nc1cccnc1)Nc1cccc(C2CCCN(c3ncnc4[nH]ccc34)C2)c1` (stereo unspecified) has an IC50 of 3.2 µM.
For `O=C(Nc1cccc(C2CCCN(c3ncnc4[nH]ccc34)C2)c1)Nc1ccccc1C1CCCC1` (racemic), the IC50 was 0.1 µM.
With `O=C(NCCCC1CCCN(c2ncnc3[nH]ccc23)C1)Nc1ccccc1` (racemic) the IC50 was 2 µM.
Work on `O=C(Nc1cccc(C2CCCN(c3ncnc4[nH]ccc34)C2)c1)c1ccccc1` (stereo unspecified) yielded an IC50 of 4.9 µM.
Work on `N#C/N=C(\Nc1ccccc1)Nc1cccc(C2CCCN(c3ncnc4[nH]ccc34)C2)c1` (stereo unspecified) yielded an IC50 of 68 µM.
`O=C(Nc1ccc(F)cc1)Nc1cccc(C2CCCN(c3ncnc4[nH]ccc34)C2)c1` (stereo unspecified) showed an IC50 of 1.3 µM.
`O=C(Nc1ccc(Cl)cc1)Nc1cccc(C2CCCN(c3ncnc4[nH]ccc34)C2)c1` (stereo unspecified) showed an IC50 of 2.3 µM.
`CC(C)(C)c1ccccc1NC(=O)Nc1cccc(C2CCCN(c3ncnc4[nH]ccc34)C2)c1` (racemic) gave an IC50 of 0.14 µM.
With `O=C(Nc1cccc(F)c1)Nc1cccc(C2CCCN(c3ncnc4[nH]ccc34)C2)c1` (stereo unspecified) the IC50 was 1.2 µM.
For `c1cc(Nc2nc3ccccc3[nH]2)cc(C2CCCN(c3ncnc4[nH]ccc34)C2)c1` (stereo unspecified), the IC50 was 4.1 µM.
`O=C(Nc1cccc(Cl)c1)Nc1cccc(C2CCCN(c3ncnc4[nH]ccc34)C2)c1` (stereo unspecified) showed an IC50 of 1.8 µM.
`O=C(Nc1cccc(C2CCCN(c3ncnc4[nH]ccc34)C2)c1)Nc1ccccc1C(F)(F)F` (stereo unspecified) showed an IC50 of 0.46 µM.
For `CC(C)(C#N)c1ccccc1NC(=O)Nc1cccc(C2CCCN(c3ncnc4[nH]ccc34)C2)c1` (racemic), the IC50 was > 10 µM.
`O=c1c(Nc2ccccc2)c(Nc2cccc(C3CCCN(c4ncnc5[nH]ccc45)C3)c2)c1=O` (stereo unspecified) showed an IC50 of 44 µM.
`O=C(NCCC#CCCNc1ncnc2[nH]ccc12)Nc1ccccc1` gave an IC50 of 19 µM.
With `O=C(NCCCCCNc1ncnc2[nH]ccc12)Nc1ccccc1` the IC50 was 16 µM.
With `O=C(NCCCCCCNc1ncnc2[nH]ccc12)Nc1ccccc1` the IC50 was 11 µM.
